Test results from DBAASP.
≈ marks a conversion by molar mass, not a printed value. Each block holds one compound with its values, some of them ahead of it.

What was measured:
Assay in all cases: ≥ marks a high value that may be exact or a test limit, other limits are often not marked, values filed in µg/mL are converted to µM
[1] = system: Escherichia coli DH5alpha
[2] = system: Micrococcus luteus ATCC 4698
[3] = system: Staphylococcus aureus ATCC 6538
[4] = system: Staphylococcus epidermidis ATCC 12228
[5] = system: Bacillus anthracis
[6] = system: Bacillus cereus
[7] = system: Escherichia coli
[8] = system: Staphylococcus aureus
[9] = system: Bacillus subtilis
[10] = system: Enterococcus faecalis ATCC 29212
[11] = system: Klebsiella pneumoniae ATCC 13883
[12] = system: Pseudomonas aeruginosa ATCC 27853
[13] = system: Salmonella enterica subsp. enterica serovar Typhimurium ATCC 14028
[14] = system: Staphylococcus aureus ATCC 25923
[15] = system: Streptococcus pyogenes ATCC 19615
[16] = system: Pseudomonas aeruginosa ATCC 15442
[17] = system: Staphylococcus aureus ATCC 29213

SMILES: CC[C@H](C)[C@H](NC(=O)[C@H](CC(C)C)NC(=O)[C@H](C)NC(=O)[C@@H]1CCCN1C(=O)[C@H](Cc1ccccc1)NC(=O)[C@@H](NC(=O)[C@H](CCCCN)NC(=O)[C@H](CO)NC(=O)[C@H](C)NC(=O)[C@@H](NC(=O)[C@H](CCCN=C(N)N)NC(=O)[C@H](Cc1ccccc1)NC(=O)[C@H](CC(C)C)NC(=O)[C@@H](N)Cc1ccccc1)C(C)C)C(C)C)C(=O)NCC(=O)N[C@@H](CCCCN)C(=O)N[C@@H](Cc1ccccc1)C(=O)N[C@@H](CCCCN)C(=O)N[C@@H](CCCCN)C(=O)N[C@@H](CCCCN)C(=O)O [FLFRVASKVFPALIGKFKKK]
- MIC [5]: 6.88 µM (≈ 16 µg/mL)
- MIC [6]: 6.88 µM (≈ 16 µg/mL)
- MIC [7]: 27.5 µM (≈ 64 µg/mL)
- MIC [8]: 6.88 µM (≈ 16 µg/mL)

SMILES: CC[C@H](C)[C@H](NC(=O)[C@@H](NC(=O)[C@H](C)NC(=O)[C@@H]1CCCN1C(=O)[C@H](Cc1ccccc1)NC(=O)[C@@H](NC(=O)[C@H](CCCCN)NC(=O)[C@H](CO)NC(=O)[C@H](C)NC(=O)[C@@H](NC(=O)[C@H](CCCN=C(N)N)NC(=O)[C@H](Cc1ccccc1)NC(=O)[C@H](CC(C)C)NC(=O)[C@H](C)NC(=O)CNC(=O)[C@@H](N)CC(C)C)C(C)C)C(C)C)C(C)C)C(=O)N[C@@H](CO)C(=O)N[C@@H](CCSC)C(=O)N[C@H](C(=O)N[C@@H](CCCCN)C(=O)O)C(C)C [LGALFRVASKVFPAVISMVK]
- MIC [5]: 30 µM (≈ 64 µg/mL)
- MIC [6]: 30 µM (≈ 64 µg/mL)
- MIC [7]: 120 µM (≈ 256 µg/mL)
- MIC [8]: 30 µM (≈ 64 µg/mL)

SMILES: CC(C)C[C@H](NC(=O)[C@H](CCCN=C(N)N)NC(=O)[C@H](CO)NC(=O)[C@H](Cc1cnc[nH]1)NC(=O)[C@@H](N)CCCN=C(N)N)C(=O)N[C@@H](CCC(N)=O)C(=O)N[C@@H](CCCN=C(N)N)C(=O)N[C@@H](CCC(=O)O)C(=O)N1CCC[C@H]1C(=O)N[C@@H](CCC(N)=O)C(=O)N[C@H](C(=O)N[C@@H](CCC(N)=O)C(=O)N[C@@H](Cc1c[nH]c2ccccc12)C(=O)N[C@@H](CC(C)C)C(=O)N[C@@H](CCC(=O)O)C(=O)N[C@@H](CCC(N)=O)C(=O)N[C@@H](CCC(N)=O)C(=O)N[C@H](C(=O)N[C@@H](C)C(=O)N[C@@H](CCCCN)C(=O)N[C@@H](CCCN=C(N)N)C(=O)N[C@@H](CCCN=C(N)N)C(=O)N[C@H](C(=O)N[C@@H](CCCCN)C(=O)N[C@@H](CCCN=C(N)N)C(=O)O)[C@@H](C)O)C(C)C)C(C)C [RHSRLQREPQVQWLEQQVAKRRTKR]
- MIC [9]: ≥ 100 µM
- MIC [10]: > 100 µM
- MIC [7]: > 100 µM
- MIC [11]: ≥ 100 µM
- MIC [12]: > 100 µM
- MIC [13]: > 100 µM
- MIC [14]: > 100 µM
- MIC [15]: ≥ 100 µM

The remaining lines, values ahead:

- MIC [1]: ≥ 299 µM
- MIC [2]: ≥ 112 µM
- MIC [3]: 209 µM (≈ 280 µg/mL)
- MIC [4]: > 299 µM
SMILES: CC(C)C[C@H](NC(=O)[C@H](CC(C)C)NC(=O)[C@H](CCCCN)NC(=O)[C@H](CO)NC(=O)[C@H](CC(C)C)NC(=O)[C@H](C)NC(=O)[C@H](CCCCN)NC(=O)[C@H](Cc1ccccc1)NC(=O)[C@H](C)NC(=O)[C@H](C)NC(=O)CNC(=O)[C@H](C)NC(=O)[C@@H](N)Cc1ccccc1)C(=O)O [FAGAAFKALSKLL]

- MIC [10]: 78.9 µM (≈ 128 µg/mL)
- MIC [16]: ≥ 78.9 µM
- MIC [17]: 39.4 µM (≈ 64 µg/mL)
SMILES: CC[C@H](C)[C@H](NC(=O)[C@H](C)NC(=O)[C@@H](N)C(C)C)C(=O)N[C@@H](C)C(=O)N[C@@H](CC(C)C)C(=O)N[C@@H](CCCCN)C(=O)N[C@@H](C)C(=O)N[C@@H](C)C(=O)N[C@@H](C)C(=O)N[C@@H](Cc1ccc(O)cc1)C(=O)N[C@@H](Cc1cnc[nH]1)C(=O)N[C@H](C(=O)N[C@@H](Cc1cnc[nH]1)C(=O)N[C@@H](CCCCN)C(=O)N[C@@H](CCC(=O)O)C(=O)O)[C@@H](C)O [VAIALKAAAYHTHKE]
